Reference: PubChem BioAssay (NCI)
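At the GI50, growth is halved. TGI: total growth inhibition.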

Experiments:
Experiment in all cases: DTP human tumour cell line panel, 384-well format
786-0 renal = system: 786-0 renal
A498 renal = system: A498 renal
ACHN renal = system: ACHN renal
BT-549 breast = system: BT-549 breast
CAKI-1 renal = system: CAKI-1 renal
CCRF-CEM leukemia = system: CCRF-CEM leukemia
DU-145 prostate = system: DU-145 prostate
HCC-2998 colon = system: HCC-2998 colon
HCT-116 colon = system: HCT-116 colon
HCT-15 colon = system: HCT-15 colon
HL-60(TB) leukemia = system: HL-60(TB) leukemia
HOP-62 NSCLC = system: HOP-62 NSCLC
HOP-92 NSCLC = system: HOP-92 NSCLC
HS 578T breast = system: HS 578T breast
HT29 colon = system: HT29 colon
KM12 colon = system: KM12 colon
LOX IMVI melanoma = system: LOX IMVI melanoma
M14 melanoma = system: M14 melanoma
MALME-3M melanoma = system: MALME-3M melanoma
MCF7 breast = system: MCF7 breast
MDA-MB-468 breast = system: MDA-MB-468 breast
MOLT-4 leukemia = system: MOLT-4 leukemia
NCI-H226 lung = system: NCI-H226 lung
NCI-H23 lung = system: NCI-H23 lung
NCI-H322M lung = system: NCI-H322M lung
NCI-H522 lung = system: NCI-H522 lung
NCI/ADR-RES ovarian = system: NCI/ADR-RES ovarian
OVCAR-3 ovarian = system: OVCAR-3 ovarian
OVCAR-4 ovarian = system: OVCAR-4 ovarian
OVCAR-5 ovarian = system: OVCAR-5 ovarian
OVCAR-8 ovarian = system: OVCAR-8 ovarian
PC-3 prostate = system: PC-3 prostate
RPMI-8226 leukemia = system: RPMI-8226 leukemia
RXF 393 renal = system: RXF 393 renal
SF-268 CNS = system: SF-268 CNS
SF-295 CNS = system: SF-295 CNS
SF-539 CNS = system: SF-539 CNS
SK-MEL-2 melanoma = system: SK-MEL-2 melanoma
SK-MEL-28 melanoma = system: SK-MEL-28 melanoma
SK-MEL-5 melanoma = system: SK-MEL-5 melanoma
SN12C renal = system: SN12C renal
SNB-75 CNS = system: SNB-75 CNS
SR leukemia = system: SR leukemia
T-47D breast = system: T-47D breast
U251 glioblastoma = system: U251 glioblastoma
UACC-257 melanoma = system: UACC-257 melanoma
UACC-62 melanoma = system: UACC-62 melanoma
UO-31 renal = system: UO-31 renal

CC#CC(=O)N1CC[C@@H](n2c(=O)n(-c3ccc(Oc4ccccc4)cc3)c3c(N)ncnc32)C1
GI50 (786-0 renal): 23 µM
TGI (786-0 renal): 66.1 µM
GI50 (A498 renal): 21.7 µM
TGI (A498 renal): > 74.2 µM
GI50 (ACHN renal): 31.6 µM
TGI (ACHN renal): > 100 µM
GI50 (BT-549 breast): 16.6 µM
TGI (BT-549 breast): 33.9 µM
GI50 (CAKI-1 renal): 23.5 µM
TGI (CAKI-1 renal): > 100 µM
GI50 (CCRF-CEM leukemia): 11.4 µM
TGI (CCRF-CEM leukemia): 23.7 µM
GI50 (DU-145 prostate): 25.5 µM
TGI (DU-145 prostate): > 70.2 µM
GI50 (HCC-2998 colon): 24.5 µM
TGI (HCC-2998 colon): 49.4 µM
GI50 (HCT-116 colon): 22.1 µM
TGI (HCT-116 colon): 54.8 µM
GI50 (HCT-15 colon): 28.6 µM
TGI (HCT-15 colon): > 89.5 µM
GI50 (HL-60(TB) leukemia): 13.9 µM
TGI (HL-60(TB) leukemia): 26.9 µM
GI50 (HOP-62 NSCLC): 21.3 µM
TGI (HOP-62 NSCLC): 61.8 µM
GI50 (HOP-92 NSCLC): 13.4 µM
TGI (HOP-92 NSCLC): > 59.6 µM
GI50 (HS 578T breast): 22.1 µM
TGI (HS 578T breast): 55.9 µM
GI50 (HT29 colon): 32.2 µM
TGI (HT29 colon): > 100 µM
GI50 (KM12 colon): 27.4 µM
TGI (KM12 colon): > 76.8 µM
GI50 (LOX IMVI melanoma): 18.8 µM
TGI (LOX IMVI melanoma): 36.2 µM
GI50 (M14 melanoma): 22.7 µM
TGI (M14 melanoma): 50.1 µM
GI50 (MALME-3M melanoma): 37.2 µM
TGI (MALME-3M melanoma): > 100 µM
TGI (MCF7 breast): 80.6 µM
GI50 (MDA-MB-468 breast): 10.1 µM
TGI (MDA-MB-468 breast): 24.5 µM
GI50 (MOLT-4 leukemia): 3.13 µM
TGI (MOLT-4 leukemia): 12.7 µM
GI50 (NCI-H226 lung): 21.8 µM
TGI (NCI-H226 lung): > 74.4 µM
GI50 (NCI-H23 lung): 30.9 µM
TGI (NCI-H23 lung): 99.6 µM
GI50 (NCI-H322M lung): 27.5 µM
TGI (NCI-H322M lung): > 100 µM
GI50 (NCI-H522 lung): 5.88 µM
TGI (NCI-H522 lung): 27.9 µM
GI50 (NCI/ADR-RES ovarian): 15.7 µM
TGI (NCI/ADR-RES ovarian): 41.3 µM
GI50 (OVCAR-3 ovarian): 14.3 µM
TGI (OVCAR-3 ovarian): 31.3 µM
GI50 (OVCAR-4 ovarian): 29.5 µM
TGI (OVCAR-4 ovarian): > 100 µM
GI50 (OVCAR-5 ovarian): > 64.3 µM
TGI (OVCAR-5 ovarian): > 100 µM
GI50 (OVCAR-8 ovarian): 27.6 µM
TGI (OVCAR-8 ovarian): > 100 µM
GI50 (PC-3 prostate): 35.1 µM
TGI (PC-3 prostate): > 100 µM
GI50 (RPMI-8226 leukemia): 7.89 µM
TGI (RPMI-8226 leukemia): 23 µM
GI50 (RXF 393 renal): 13.4 µM
TGI (RXF 393 renal): 32.2 µM
GI50 (SF-268 CNS): 25.1 µM
TGI (SF-268 CNS): > 65 µM
GI50 (SF-295 CNS): 40.5 µM
TGI (SF-295 CNS): > 100 µM
GI50 (SF-539 CNS): 21.6 µM
TGI (SF-539 CNS): 53.6 µM
GI50 (SK-MEL-2 melanoma): 18.1 µM
TGI (SK-MEL-2 melanoma): 34.7 µM
GI50 (SK-MEL-28 melanoma): 68.3 µM
TGI (SK-MEL-28 melanoma): > 100 µM
GI50 (SK-MEL-5 melanoma): 17.7 µM
TGI (SK-MEL-5 melanoma): 47 µM
GI50 (SN12C renal): 20.2 µM
TGI (SN12C renal): > 90.9 µM
GI50 (SNB-75 CNS): 28.6 µM
TGI (SNB-75 CNS): 77.2 µM
GI50 (SR leukemia): 5.69 µM
TGI (SR leukemia): 18.6 µM
GI50 (T-47D breast): 11.9 µM
TGI (T-47D breast): 33.1 µM
GI50 (U251 glioblastoma): 18.1 µM
TGI (U251 glioblastoma): 40.3 µM
GI50 (UACC-257 melanoma): 19.7 µM
TGI (UACC-257 melanoma): 67.2 µM
GI50 (UACC-62 melanoma): 22.8 µM
TGI (UACC-62 melanoma): > 100 µM
GI50 (UO-31 renal): 31.8 µM
TGI (UO-31 renal): > 100 µM
